# Columns and labels:
# [1] = Pharmacokinetics of gefitinib after repeated oral Lonicera flos; assay type: in vivo, Sprague-Dawley rats; conditions: for concentration at 0.5 h: 0.50 h; for AUC(0-t) / Cmax / Tmax / half-life: po, average
# [2] = system: NCI-H520 non-small cell lung cancer cell xenograft; experiment: NCI-H520 xenograft nude mice: tumor volume and tumor weight; assay type: in vivo, athymic nude mice
# Excerpt: (1) Anticancer effects: Changes in tumor volume, tumor weight, tumor cell volume in a formed mass, and apoptotic cell percentages, and changes in immunoreactivities of caspase-3, PARP, NT, 4-HNE, CD31, Ki-67, COX-2, iNOS, and TNF-α in the formed mass
# [3] = male, Sprague-Dawley, rat, plasma, oral, 10 mg/kg, gefitinib 10 mg/kg oral, control (saline) rats
# [4] = male, Sprague-Dawley, rat, plasma, oral, gefitinib 10 mg/kg oral after Lonicera flos 300 mg/kg oral 15 days
# [5] = male, Sprague-Dawley, rat, plasma, 10 mg/kg, gefitinib 10 mg/kg oral, Control
# [6] = male, Sprague-Dawley, rat, plasma, 10 mg/kg, gefitinib 10 mg/kg oral, Lonicera japonica group (15 days pre-treatment)
# [7] = NCI-H520 xenograft nude mice, oral once daily 35 days
smiles,measurement,setting,value
"COc1cc2ncnc(Nc3ccc(F)c(Cl)c3)c2cc1OCCCN1CCOCC1 [Gefitinib, gefitinib]",concentration at 0.5 h,[1]; [3],703 ng/mL
same,concentration at 1 h,[1]; [3],805 ng/mL
same,concentration at 3 h,[1]; [3],762 ng/mL
same,concentration at 7 h,[1]; [3],824 ng/mL
same,concentration at 10 h,[1]; [3],439 ng/mL
same,concentration at 24 h,[1]; [3],70 ng/mL
same,concentration at 0.5 h,[1]; [4],571 ng/mL
same,concentration at 1 h,[1]; [4],645 ng/mL
same,concentration at 3 h,[1]; [4],531 ng/mL
same,concentration at 7 h,[1]; [4],579 ng/mL
same,concentration at 10 h,[1]; [4],430 ng/mL
same,concentration at 24 h,[1]; [4],53 ng/mL
same,concentration at […],"[1]; male, Sprague-Dawley, rat, plasma, oral, gefitinib 10 mg/kg oral after Lonicera flos 300 mg/kg oral 15 days, […]",274 ng/mL
same,AUC(0-t),[1]; [5],10800 ng·h/mL
same,Cmax,[1]; [5],921 ng/mL
same,Tmax,[1]; [5],3.55 h
same,half-life,[1]; [5],5.05 h
same,AUC(0-t),[1]; [6],8740 ng·h/mL
same,Cmax,[1]; [6],736 ng/mL
same,Tmax,[1]; [6],2.89 h
same,half-life,[1]; [6],4.84 h
same,time of maximum plasma concentration after administration,"[1]; orally administered, rats",about 4 hours
same,Tumor volume First administration [A],"[2]; NCI-H520 xenograft nude mice, baseline",459.88 ± 129.50 mm^3
same,Tumor mass absolute weight,[2]; [7],1.321 ± 0.191 g
same,Tumor volume Sacrifice [B],[2]; [7],2486.04 ± 480.24a mm^3
same,change of the amount of change in tumor volume,"[2]; vs tumor xenograft group, 5 weeks",−68.18%
same,change in tumor absolute weight,"[2]; vs tumor xenograft group, 35 days",−47.72%
